In brackets after ≈: the same amount, converted by molar mass. Values belong to the compound of their own block, whether it stands above or below them.
What was measured:
[1] = target: Human immunodeficiency virus type 1 protease (Human immunodeficiency virus 1) (UniProt Q72874)
[2] = Compound was evaluated for the solubility at the pH 7.4; type: ADME; conditions: buffer
[3] = target: T1, Human immunodeficiency virus type 1 protease (Human immunodeficiency virus 1, UniProt Q72874)
Description: Compound was evaluated for the inhibitory activity against HIV-1 protease

[4] = target: T1, Human immunodeficiency virus type 1 protease; remark: listed apart in the source
Description: Effective concentration of compound for inhibition of HIV 1 protease was determined

[5] = target: T1, Human immunodeficiency virus type 1 protease; remark: listed apart in the source
Description: Inhibition of HIV-1 protease

Thymidylate synthase = Thymidylate synthase (Homo sapiens, UniProt P04818)
Description: Compound was evaluated for the inhibitory constant of human thymidylate synthase

Carbonic anhydrase 2 = Carbonic anhydrase 2 (Homo sapiens, UniProt P00918)
Description: Compound was evaluated for the inhibitory constant towards Human Carbonic anhydrase II (HCA II)

L1210 = test: cells; conditions: Mus musculus
Description: Compound was evaluated for the inhibitory activity of L1210 cells

Thymidylate synthase, sequence (P04818 whole entry): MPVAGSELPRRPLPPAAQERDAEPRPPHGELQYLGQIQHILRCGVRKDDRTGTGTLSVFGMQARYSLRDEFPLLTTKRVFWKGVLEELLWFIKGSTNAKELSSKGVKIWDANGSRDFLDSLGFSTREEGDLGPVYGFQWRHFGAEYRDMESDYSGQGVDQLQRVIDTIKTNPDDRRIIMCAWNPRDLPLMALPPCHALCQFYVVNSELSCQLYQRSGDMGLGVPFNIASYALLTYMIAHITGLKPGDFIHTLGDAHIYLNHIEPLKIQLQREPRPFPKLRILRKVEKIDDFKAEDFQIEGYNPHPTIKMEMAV

Thymidine reversal [1]: 2.3
Structure (SMILES): CN(Cc1ccc(S(=O)(=O)c2ccccc2)cc1)c1ccc2c3c(cccc13)C(N)=N2

solubility [2]: 3.1 µM (≈ 2.38 µg/mL)
Ki [3]: 0.09 nM
EC50 [4]: 20 nM
Structure (SMILES): CC(C)[C@H](NC(=O)OCc1ccccn1)C(=O)N[C@@H](Cc1ccccc1)[C@H](O)[C@H](O)[C@H](Cc1ccccc1)NC(=O)[C@@H](NC(=O)OCc1ccccn1)C(C)C

Structure (SMILES): CC(C)(C)OC(=O)N[C@@H](Cc1ccccc1)[C@H](O)[C@@H](O)[C@H](Cc1ccccc1)NC(=O)OC(C)(C)C
IC50 [5]: 40 nM

Structure (SMILES): CC(C)[C@H](NC(=O)OCc1ccccc1)C(=O)N[C@@H](Cc1ccccc1)C(O)C(O)[C@H](Cc1ccccc1)NC(=O)[C@@H](NC(=O)OCc1ccccc1)C(C)C (single isomer, unassigned; 11)
IC50 [5]: 0.22 nM

Ki (Thymidylate synthase): 2 nM
Structure (SMILES): CN(Cc1ccc(S(=O)(=O)N2CCOCC2)cc1)c1ccc2c3c(cccc13)C(N)=N2

solubility [2]: 256 µM (≈ 204 µg/mL)
Ki (Carbonic anhydrase 2): 140 nM
Ki [3]: 0.15 nM
EC50 [4]: 70 nM
Structure (SMILES): CC(C)[C@H](NC(=O)N(C)Cc1ccccn1)C(=O)N[C@@H](Cc1ccccc1)[C@H](O)[C@H](O)[C@H](Cc1ccccc1)NC(=O)[C@@H](NC(=O)N(C)Cc1ccccn1)C(C)C [A-77003]

Structure (SMILES): CC(=O)N[C@@H](Cc1ccccc1)C(O)[C@H](Cc1ccccc1)NC(C)=O
IC50 [5]: > 10000 nM

IC50 [5]: 590 nM
Structure (SMILES): CC(C)[C@H](N)C(=O)N[C@@H](Cc1ccccc1)C(O)[C@H](Cc1ccccc1)NC(=O)[C@@H](N)C(C)C

solubility [2]: 4.7 µM (≈ 3.74 µg/mL)
Ki [3]: 0.18 nM
EC50 [4]: 60 nM
Structure (SMILES): CC(C)[C@H](NC(=O)N(C)Cc1ccccn1)C(=O)N[C@@H](Cc1ccccc1)[C@@H](O)[C@H](O)[C@H](Cc1ccccc1)NC(=O)[C@@H](NC(=O)N(C)Cc1ccccn1)C(C)C

solubility [2]: 0.27 µM (≈ 0.208 µg/mL)
Ki [3]: 0.19 nM
EC50 [4]: 50 nM
Structure (SMILES): CC(C)[C@H](NC(=O)OCc1ccccn1)C(=O)N[C@@H](Cc1ccccc1)[C@@H](O)[C@H](O)[C@H](Cc1ccccc1)NC(=O)[C@@H](NC(=O)OCc1ccccn1)C(C)C

solubility [2]: 292 µM (≈ 232 µg/mL)
Ki [3]: 1.66 nM
EC50 [4]: 280 nM
Structure (SMILES): CC(C)[C@H](NC(=O)N(C)Cc1ccccn1)C(=O)N[C@@H](Cc1ccccc1)[C@H](O)[C@@H](O)[C@H](Cc1ccccc1)NC(=O)[C@@H](NC(=O)N(C)Cc1ccccn1)C(C)C [A-76928]

Ki [3]: 0.16 nM
EC50 [4]: 120 nM
Structure (SMILES): CC(C)[C@H](NC(=O)OCc1ccccn1)C(=O)N[C@@H](Cc1ccccc1)[C@H](O)[C@@H](O)[C@H](Cc1ccccc1)NC(=O)[C@@H](NC(=O)OCc1ccccn1)C(C)C

IC50 [5]: 3000 nM
Structure (SMILES): CC(C)(C)OC(=O)N[C@@H](Cc1ccccc1)C(O)[C@H](Cc1ccccc1)NC(=O)OC(C)(C)C

Structure (SMILES): CC(=O)N[C@H](C(=O)N[C@H](C(=O)N[C@@H](Cc1ccccc1)C(O)[C@H](Cc1ccccc1)NC(=O)[C@@H](NC(=O)[C@@H](NC(C)=O)C(C)C)C(C)C)C(C)C)C(C)C
IC50 [5]: 10 nM

Structure (SMILES): CNC1=Nc2ccc(N(C)Cc3ccc(S(=O)(=O)N4CCOCC4)cc3)c3c(C)ccc1c23
Ki (Thymidylate synthase): 2 nM
Thymidine reversal [1]: 12.7
IC50 (L1210): 150 nM

IC50 [5]: > 10000 nM
Structure (SMILES): N[C@@H](Cc1ccccc1)C(O)[C@@H](N)Cc1ccccc1

Ki (Carbonic anhydrase 2): 17 nM
Structure (SMILES): CC(C)[C@H](NC(=O)N(C)Cc1ccccn1)C(=O)N[C@@H](Cc1ccccc1)CC(O)[C@H](Cc1ccccc1)NC(=O)[C@@H](NC(=O)N(C)Cc1ccccn1)C(C)C (single isomer, unassigned)

Thymidine reversal [1]: 1.1
Structure (SMILES): CCN(Cc1ccc(S(=O)(=O)N2CCNCC2)cc1)c1ccc2c3c(cccc13)C(=O)N2

Thymidine reversal [1]: 8.5
IC50 (L1210): 300 nM
Structure (SMILES): CN(Cc1ccc(S(=O)(=O)N2CCOCC2)cc1)c1ccc2c3c(cccc13)C(=N)N2

Structure (SMILES): CC(C)(C)OC(=O)N[C@@H](Cc1ccccc1)[C@@H](O)[C@H](O)[C@H](Cc1ccccc1)NC(=O)OC(C)(C)C
IC50 [5]: 280 nM

Structure (SMILES): CC(C)[C@H](NC(=O)OCc1ccccc1)C(=O)N[C@@H](Cc1ccccc1)[C@H](O)[C@H](O)[C@H](Cc1ccccc1)NC(=O)[C@@H](NC(=O)OCc1ccccc1)C(C)C
IC50 [5]: 0.22 nM

Structure (SMILES): CC(C)[C@H](NC(=O)OCc1ccccc1)C(=O)N[C@@H](Cc1ccccc1)C(O)C(O)[C@H](Cc1ccccc1)NC(=O)[C@@H](NC(=O)OCc1ccccc1)C(C)C (single isomer, unassigned; 13)
IC50 [5]: 0.38 nM
